Experimental data as given in patent publication US20190211317A1, “PEPTIDES AND NANOPARTICLES FOR INTRACELLULAR DELIVERY OF GENOME-EDITING MOLECULES” (Aadigen, LLC, priority 2016, published 2019).
Several values for one entry are separate records, joined by “and”; a condition that tells them apart may be missing. Equal entries are not always repeated. Where two headings read alike, the source gives them in different places.

Tests used:
[1] = CPP/CAS9 and CPP/CAS9:gRNA particle size, polydispersity, zeta potential (Zetasizer 4); assay type: physicochemical
Method: The CPP/CAS9 and CPP/CAS9/sgRNA particles were further characterized; the mean size, polydispersity and zeta potential were measured with Zetasizer 4 apparatus (Malvern Ltd). […] The mean size and the polydispersity of the CCP/CAS9 and CCP/CAS9:gRNA complexes were determined at 25° C. for 3 min per measurement and zeta potential was measured with Zetasizer 4 apparatus (Malvern Ltd).

[2] = test system: EGFP-U2OS, EGFP-HEK, EGFP-JURKAT cells; test: Toxicity of CPP/CAS9/gRNA complexes (MTT assay); assay type: cell-based; details: three cell lines; concentrations up to 100 nM; 24 h
Method: The robust EGFP disruption observed in the three cell lines was found not to be the result of cellular toxicity. […] A total of 30,000 cells seeded in 24-well plates the day prior to transfection were incubated with increasing concentrations of CPP/CAS9/gRNA (complexed at a 10:1 or 20:1 molar ratio of CPP to preloaded CAS9/gRNA complex) ranging from 1 to 200 nM for 30 min prior to addition of medium to reach a final 10% concentration of FCS. Cytotoxic response was measured 24 hours later by colorimetric MTT assay (Sigma, Germany). For MTT assay, cell culture medium was removed and replaced with PBS containing 2.5 mg/ml MTT for 4 hours. Results correspond to the average of 3 separate experiments. […] Viability was reduced by less than 10% at 200 nM. In contrast, at […] for Lipofectamine 2000 or RNAiMAX, between 60-70% and 20-25% cell death was observed, depending on cell line. Moreover, both lipid methods appeared to be highly toxic on JURKAT cells, inducing 75% (lipofectamine 2000) or 45% (RNAiMAX) cell death.

[3] = test system: endogenous EMX1 gene in U2OS, JURKAT and K562 cells; test: EMX1 gene editing from CPP delivery of CAS9/gRNA (T7E1 assay); assay type: cell-based, human
Method: RNAiMAX delivery was used as a positive control as it was previously reported to show better results than Lipofectamine 2000 (Zuris et al., 2015, supra). […] Cells were returned to the incubator for 72 hours.

[4] = test system: hPD1 gene in human T cells; test: hPD1 gene editing in primary human T cells (T7E1 assay); assay type: cell-based
Method: T cells were isolated from PBMCs (2 different donors) using anti-CD3/anti-CD28 antibodies bound to paramagnetic beads (Dynabeads ClinExVivo CD3/CD28, Invitrogen) at a ratio of 3:1 (beads:cells). The cells and beads were co-incubated for 2 hours at room temperature and CD3′ cell enrichment was performed using Dynal ClinExVIVO MPC magnet (Thermo Fisher). The anti-CD3/anti-CD28 paramagnetic beads were removed, washed and concentrated. Cells in the CD3′ fraction were resuspended in activation media at a concentration of 1×10^6 cells/ml with AIM-V medium (Thermo Fishers) supplemented with 10% fetal calf serum, 300 IU/ml IL2 and 50 ng/ml OKT3 (MuromonAB-CD3) for two days.
Cells were transfected by electroporation with CD-19 plasmid or gRNA/CAS9 (5 μg/10 μg) using a Nucleofector 2b (Lonza, Germany) with the Amaxa Human T cells Nucleofector Kit, VPA-1002 (Lonza, Germany). 5×10^6 cells were washed twice with DPBS by centrifuging at 800 rpm for 5 minutes and resuspended in 100 ^l transfection buffer, and then transferred into the electroporation cuvette. An optimized program selected for both high transfection and high efficiency on T cells was used. After electroporation, cells were resuspended in 500 ^l pre-warmed AIM-V medium containing 10% FBS and incubated at 37° C. in 5% CO2. The transfection efficiency was evaluated after 48 hr by flow cytometry or T7E1 assay.
As control, CAS9 loaded with gRNA targeting GFP was used.
Cells were returned to the incubator for 72 hours. CAS9-induced double-strand break followed by repair through non-homologous end joining (NHEJ) was analyzed by either the T7E1 assay or using the Genome Cleavage Detection kit (GCD Thermo Fisher) and quantified using Fragment Analyzer System. The indel frequency in the target gene was quantified using the T7E1 assay. The cultures were expanded and analyzed for viability and PD1 levels every 10 days. T cell expansion medium contained AIM V medium, supplemented with 5% heat-inactivated human AB Serum, 1% Gluta-Max, and 300 IU/mL IL-2.

[5] = test system: hPD1 gene in human T cells; test: Simultaneous delivery of CAR plasmid and CAS9/gRNA: hPD1 editing (T7E1); assay type: cell-based; details: for mean indel frequency: two donors
Method: Cells were incubated for 5 min, then 300 μl of serum free RPMI-1640 medium was added. After 30 min, 1.2 mL of full medium was added and serum level was adjusted to 10%. As control, CAS9 loaded with gRNA targeting GFP was used. For comparison with electroporation methods, cells were transfected with the anti-CD-19 CAR plasmid (5 μg) and gRNA/CAS9 (5 μg/10 μg) using Nucleofector 2b (Lonza, Germany) with the Amaxa Human T cells Nucleofector Kit, VPA-1002 (Lonza, Germany).
On day 5, the level of transduced and untransduced cells was analyzed, and cells were transferred to fresh T cell expansion medium. The cultures were analyzed for viability and anti-CD19 CAR expression by flow cytometry. The expression of the anti-CD19 CAR in the T cells was evaluated by flow cytometry using a Protein L assay. […] 7-AAD (Sigma) was used to determine viability. CAS9-induced double-strand break followed by repair through NHEJ system was analyzed by either the T7E1 assay or using the Genome Cleavage Detection kit (GCD Thermo Fisher) and quantified using Fragment Analyzer System. The indel frequency in the target gene was quantified using the T7E1 assay. The cultures were expanded and analyzed for viability, anti-CD19 expression and PD I level every 10 days. T cell expansion medium contained AIM V medium, supplemented with 5% heat-inactivated human AB Serum, 1% Gluta-Max, and 300 IU/mL IL-2.

[6] = test system: primary human fibroblasts and primary human hepatocytes; test: Toxicity of ADGN-100a/CAS9/gRNA in primary cells (MTT assay); assay type: cell-based; details: both primary cell types
Method: Cytotoxic response was measured 24 hours later by colorimetric MTT assay (Sigma, Germany). For MTT assay, cell culture medium was removed and replaced with PBS containing 2.5 mg/ml of MTT for 4 hours.

[7] = test system: HPRT gene in mouse muscle myoblast cells (C2C12); test: HPRT gene editing in C2C12 myoblasts (T7E1 assay); assay type: cell-based
Method: (§1) […] Delivery by RNAiMAX was included as a positive control.
(§2) CAS9-induced NHEJ was analyzed 72 hours after transfection by PCR (FIG. 26) and T7E1 assay (FIG. 27). The deletion (indel) frequencies in the HPRT gene were quantified using a T7E1 assay by quantifying the amount of uncut vs cut DNA using a Fragment Analyzer System. Data for on-target mutations induced by RGEN/gRNA are reported as an average of 3 separate experiments
(§3) The cell line was maintained in 5% CO2 at 37° C. and cell viability was assessed by the Trypan Blue exclusion test. To induce myogenic differentiation, at about 80% cell confluence the medium containing 10% fetal calf serum was substituted with medium containing 1% fetal calf serum. The cells were transfected at the undifferentiated stage or at day 7 after differentiation.

[8] = test system: E-Catenin gene in mouse muscle myoblast cells (C2C12); test: ü-Catenin gene disruption in C2C12 myoblasts (PCR gel); assay type: cell-based; details: undifferentiated and differentiated C2C12
Method: Cells were transfected with CAS9/gRNA (2.5 μM/5 μM) complexes associated with CPP (+) or not (−) at a molar ratio of 20:1 (peptide to complex) and compared to delivery by RNAiMAX for E-Catenin expression. ü-actin expression was included as a loading control.
as §1, §2, §3

[9] = test system: U2OS, HEPG2, K562 cells and primary human fibroblasts; test: CAS9 protein expression after CPP delivery of CAS9 mRNA (ELISA); assay type: cell-based; details: day 3
Method: CPP/CAS9 mRNA complexes were formed by mixing the CAS9 mRNA (0.5 μg) with CPP at a 20:1 molar ratio of CPP:CAS9 mRNA and incubating for 30 min at 37° C. prior to cell transfection. Cells were transfected according to optimized protocols for either adherent or suspension cell lines.
Human primary fibroblasts were freshly obtained and grown in flasks pre-coated with a gelatin-based coating solution and incubated in Culture Complete Growth Medium for 3 days before expansion and treatment. U2OS cells were cultured in Dulbecco's Modified Eagle's Medium (DMEM), supplemented with 2 mM glutamine, 1% antibiotics (streptomycin 10,000 μg/mL, penicillin, 10,000 IU/mL) and 10% (w/v) foetal calf serum (FCS), at 37° C. in a humidified atmosphere containing 5% CO2. 35 mm dishes seeded with 150,000 cells the day prior to transfection were grown to 50-60% confluence and set up to be at about 70% confluences at the time of transfection. Before transfection, cells were washed with DMEM (2×) followed by PBS (1×). Cells were then overlaid with 0.2 ml of complex solution (16 μl CPP/Cargo complex in water+184 μl OPTiMEM without antibiotics), mixed gently, and incubated for 10 min at 37° C. 0.8 mL of fresh OPTiMEM or DMEM was then added and cells were incubated for 20 min at 37° C. 2 mL of complete OPTiMEM (high glucose) or DMEM containing 11.4% FCS was then added in order to reach a final FCS concentration of 10%, without removing the overlay of CPP/Cargo complexes. Cells were returned to the incubator (37° C., 5% CO2) and assayed at 72 hours post transfection.
K562 and HEpG2 cells were set up to be at about 70% confluence at the time of transfection. The cells were maintained in high glucose DMEM media with 10% serum. Before transfection, cells were harvested by centrifugation, then washed with DMEM (2×) followed by PBS (1×). Cells were then resuspended in 0.2 ml of complex solution (16 μl CPP/Cargo complex in water+184 μl OPTiMEM without antibiotics), mixed gently, and incubated for 10 min at 37° C. 0.8 mL of fresh OPTiMEM was then added and cells were incubated for 20 min at 37° C. 2 mL of complete OPTiMEM (high glucose) containing 11.4% FCS was then added in order to reach a final FCS concentration of 10%, without removing the overlay of CPP/Cargo complexes. Cells were returned to the incubator (37° C., 5% CO2) and assayed at 72 hours post transfection.
RNAiMAX lipid-based delivery (Invitrogen Thermo Fisher France) was used as a control and transfections were performed following the manufacturer's instructions. CAS9 expression level was analyzed at multiple time points over a period of 10 days as determined by ELISA on protein extracts using antibodies against CRISPR/Cas9 obtained from Diagenode (Diagenode cat. No. C15200223) and ABCAM (clone 7A9-ab191468).

[10] = test system: endogenous EMX1 gene in U2OS, HEPG2 cells and primary human fibroblasts; test: EMX1 editing from CPP delivery of CAS9-expressing plasmid and gRNA (T7E1); assay type: cell-based; details: the three cell types
Method: EMX1-targeting gRNAs were prepared as described above. CPP/plasmid/gRNA complexes were prepared by mixing 0.5 μg of a CAS9-expressing plasmid (Addgene MLM3639-Plasmid #42252) and 5 μg gRNA with CPP at a 20:1 molar ratio of CPP to nucleic acid (plasmid+gRNA) and incubating for 30 min at 37° C. prior to cell transfection. Suspension and adherent cells were transfected according to the protocols described in Example 13a. Lipofectamine 2000- and RNAiMAX-mediated delivery methods (Invitrogen Thermo Fisher France) were used as controls. EMX1 gene editing was analyzed at day 3 and day 6 by T7E1 assay and quantified using a Fragment Analyzer System.

Swiss mice = test: In vivo delivery of CAS9 mRNA by three CPPs: CAS9 expression in tissues (ELISA); parameters: species or system mouse
Method: Free CAS9 mRNA in physiological buffer was injected as a control.
At day 3, day 6, and day 10 following injection, animals were sacrificed and tissues including lung, liver, brain, kidney, heart, spleen, blood, pancreas, muscle, bone marrow, and intestine were collected. Tissues were homogenized and CAS9 protein levels in protein extracts were analyzed by ELISA using an antibody against CRISPR/Cas9 (SBI clone 7A9).

PCSK9 = test: In vivo CAS9 mRNA/gRNA targeting PCSK9: serum PCSK9 (ELISA); parameters: species or system mouse
Method: Polyadenylated and capped CAS9 mRNA was obtained from ThermoFisher, and gRNA (5 μg) targeting PCSK9 Exon 1 was obtained from Eurogentec. […] Free CAS9 mRNA/gRNA was injected as a control.
Blood samples were collected by saphenous vein bleeds at multiple time points (day 3, 6, 10, and 21), collecting no more than 100 μl or 10% of total blood volume per week. Serum levels of PCSK9 were determined by ELISA using the Mouse Proprotein Convertase 9/PCSK9 Quantikine ELISA Kit (MPC-900, R&DSystems).

[11] = test system: EGFP reporter gene in EGFP-U2OS cells
Method: ADGN-100 was evaluated for cellular delivery of a plasmid encoding CAS9 and gRNA targeting a specific site in the exogenous EGFP gene reporter in U2OS cells (EGFP-U2OS).
Stock solutions of amphipathic peptides were prepared at 1 mg/mL in distilled water and sonicated for 10 min.
EGFP-U2OS cells containing a single integrated EGFP reporter gene were cultured in Dulbecco's Modified Eagle's Medium (DMEM), supplemented with 2 mM glutamine, 1% antibiotics (streptomycin 10,000 μg/mL, penicillin, 10,000 IU/mL) and 10% (w/v) foetal calf serum (FCS), at 37° C. in a humidified atmosphere containing 5% CO2. A total of 150,000 cells seeded in a 35 mm dish the day prior to transfection were grown to 50-60% confluence and overlaid with 200 μl of preformed complexes, incubated for 3-5 min, then 400 μl of DMEM was added. After 30 min incubation at 37° C., 1 mL of fresh DMEM containing 16% FCS was added to reach a final FCS concentration of 10%, without removing the overlay of CPP/CAS9-gRNA complexes. Cells were returned to the incubator for 72 hours.
CAS9-induced double-strand break formation was analyzed using flow cytometry by monitoring the level of EGFP expression. […] Lipofectamine 2000 delivery was used as positive control.

[12] = test system: exogenous eGFP gene reporter in eGFP-U2OS cell line; details: 72 h
Method: Both lipofectamine 2000 and RNAiMAX delivery methods were included as controls. eGFP-U2OS cells were cultured in Dulbecco's Modified Eagle's Medium (DMEM), supplemented with 2 mM glutamine, 1% antibiotics (streptomycin 10,000 μg/mL, penicillin, 10,000 IU/mL) and 10% (w/v) foetal calf serum (FCS), at 37° C. in a humidified atmosphere containing 5% CO2. A total of 150,000 cells seeded in a 35 mm dish the day prior to transfection were grown to 50-60% confluence and overlaid with 200 μl of preformed complexes, incubated for 5 min, then 400 μl of DMEM was added. After 20 min incubation at 37° C., 1 mL of fresh DMEM containing 16% FCS was added in order to reach a final FCS concentration of 10%, without removing the overlay of complexes. Cells were returned to the incubator for 72 hours.

[13] = Donor 1, CAS9/sgRNA 2.5 μg/5 μg
[14] = Donor 2, CAS9/sgRNA 2.5 μg/5 μg

CC(C)C[C@H](NC(=O)[C@H](CCCNC(=N)N)NC(=O)[C@H](Cc1c[nH]c2ccccc12)NC(=O)[C@H](CCCNC(=N)N)NC(=O)[C@H](Cc1c[nH]c2ccccc12)NC(=O)CNC(=O)[C@H](C)NC(=O)[C@H](CO)NC(=O)[C@H](CCCNC(=N)N)NC(=O)[C@H](Cc1c[nH]c2ccccc12)NC(=O)[C@H](CCCCN)NC(=O)CCN)C(=O)N[C@@H](Cc1c[nH]c2ccccc12)C(=O)N[C@@H](CCCNC(=N)N)C(=O)N[C@H](C(=O)N[C@@H](CCCNC(=N)N)C(=O)N[C@@H](CO)C(=O)N[C@@H](Cc1c[nH]c2ccccc12)C(=O)N[C@@H](CO)C(=O)N[C@@H](CCCNC(=N)N)C(=O)O)C(C)C [ADGN-100a]
PI ([1]; Cas9:gRNA, molar ratio 10/1): 0.27 ± 0.1 | Size ([1]; Cas9:gRNA, molar ratio 10/1): 91 ± 5 nm | zeta ([1]; Cas9:gRNA, molar ratio 10/1): 5.3±1.0 MV and 5.3 ± 0.7 MV | PI ([1]; Cas9:gRNA, molar ratio 20/1): 0.28 ± 0.1 | Size ([1]; Cas9:gRNA, molar ratio 20/1): 87 ± 6 nm | zeta ([1]; Cas9:gRNA, molar ratio 20/1): 4.8±0.3 MV | Pt ([1]; Cas9, molar ratio 10/1): 0.25 ± 0.1 | zeta ([1]; Cas9, molar ratio 10/1): 6.0±0.8 mV | Size ([1]; Cas9, molar ratio 10/1, 0.9% NaCl): 82 ± 5 nm | Pt ([1]; Cas9, molar ratio 20/1): 0.21 ± 0.1 | Size ([1]; Cas9, molar ratio 20/1): 78 ± 7 nm | zeta ([1]; Cas9, molar ratio 20/1): 7.2±1 mV | formation of stable nanoparticles ([1]; with CAS9 and CAS9:gRNA complex, molar ratio 10:1 or 20:1): able to form stable nanoparticles | Mean diameter ([1]; with CAS9 and CAS9:gRNA, molar ratio 10:1 or 20:1): ~80 nm | toxicity [2]: no toxicity | Mean indel Frequency ± S.E.M ([3]; JURICAT, CAS9/sgRNA 25 nM): 65% and 65 ± 5% | Mean indel Frequency ± S.E.M ([3]; JURKAT, CAS9/sgRNA 50 nM): 68 ± 6% | Mean indel Frequency ± S.E.M ([3]; K562, CAS9/sgRNA 25 nM): 71% and 71 ± 8% | Mean indel Frequency ± S.E.M ([3]; K562, CAS9/sgRNA 50 nM): 74 ± 4% | Mean indel Frequency ± S.E.M ([3]; U2OS, CAS9/sgRNA 25 nM, 20:1): 67% and 67 ± 5% | Mean indel Frequency ± S.E.M ([3]; U2OS, CAS9/sgRNA 50 nM): 72 ± 8% | Mean indel Frequency ± s.e.m [4, 13]: 48 ± 6% | Mean indel Frequency ± s.e.m ([4]; Donor 1, CAS9/sgRNA 5 μg/10 μg): 56 ± 4% | Mean indel Frequency ± s.e.m [4, 14]: 52 ± 5% | Mean indel Frequency ± s.e.m ([4]; Donor 2, CAS9/sgRNA 5 μg/10 μg): 61 ± 8% | mean indel frequency of hPD1 gene ([4]; T cells from the two donors, 5 μg/10 μg CAS9/gRNA): 58% | Mean indel Frequency ± s.e.m [5, 13]: 44 ± 5% | Mean indel Frequency ± s.e.m ([5]; Donor 1, CAS9/sgRNA 5 μg/10 μg): 50 ± 3% | Mean indel Frequency ± s.e.m [5, 14]: 42 ± 3% | Mean indel Frequency ± s.e.m ([5]; Donor 2, CAS9/sgRNA 5 μg/10 μg): 51 ± 8% | mean indel frequency ([5]; 2.5 μg/5 μg CAS9/gRNA): approximately 42% | mean indel frequency ([5]; 5 μg/10 μg CAS9/gRNA): approximately 50% | toxicity [6]: less than 10% | mean indel frequency ([7]; differentiated C2C12): 47% | mean indel frequency ([7]; undifferentiated C2C12, 5 μg/10 μg CAS9/gRNA, 20:1): 79% | editing of ü-Catenin and HPRT genes [8]: robust editing | ELISA signal for CAS9 protein expression ([9]; U2OS, K562, HepG2, CAS9 mRNA 0.5 μg): about 25 times the background | ELISA signal for CAS9 protein expression ([9]; primary human fibroblasts): about 20 times the background | mean indel frequencies [10]: 45-50% | CAS9 expression (Swiss mice; day 10, liver): CAS9 expression was observed | ELISA signal for CAS9 protein expression (Swiss mice; liver, day 3 and day 6, CAS9 mRNA 5 μg i.v., 20:1): greater than 20 times that of background | CAS9 protein expression (Swiss mice; other tissues examined): Little to no increase | decrease of serum levels of PSCK9 (PCSK9; day 1, CAS9 mRNA 5 μg/gRNA 5 μg single i.v.): 51% | decrease of serum levels of PSCK9 (PCSK9; day 3): 62% | decrease of serum levels of PSCK9 (PCSK9; day 6): 69% | decrease of serum levels of PSCK9 (PCSK9; day 10): 65% | decrease of serum levels of PSCK9 (PCSK9; day 14): 65% | decrease of serum levels of PSCK9 (PCSK9; day 20): 60% | decrease in EGFP expression ([11]; molar ratio 10:1 of ADGN-100a to each nucleic acid): 23% | decrease in EGFP expression ([11]; molar ratio 20:1): 38% | decrease in EGFP expression ([12]; CAS9 mRNA/gRNA (0.5 μg/5 μg)): 85% | decrease in EGFP expression ([12]; CAS9 protein/gRNA (2.5 μM/5 μM)): 87%
